Source: patent US20190022092A1, “Therapeutic Combinations of a BTK Inhibitor and a GITR Binding Molecule, a 4-1BB Agonist, or an OX40 Agonist” (Acerta Pharma B.V., priority 2015, published 2019)

Columns and labels:
[1] = tested on: human platelet-mediated thrombosis; conditions: VWF HA1, mouse (infused with human platelets), in vivo, 2 min
Method: Injury to the vessel wall of arterioles ([…] diameter) was performed using a pulsed nitrogen dye laser (440 nm, Photonic Instruments) applied through a 20× water-immersion Olympus objective (LUMPlanF1, 0.5 numerical aperture (NA)) of a Zeiss Axiotech vario microscope. […] The extent of thrombus formation was assessed for 2 minutes after injury and the area (μm^2) of coverage determined (Image IQ, Andor Technology).
The BTK inhibitor-treated human platelets were fluorescently labeled and infused continuously through a catheter inserted into the femoral artery.

Raji cell line = test: Antibody-dependent NK cell-mediated cytotoxicity, chromium release, Raji cell line; assay type: cell-based; conditions: 1 μM, 4 hours, variable rituximab, effector:target 25:1
CD8+ T cell [2] = test: Cytotoxicity assay for CD8+ T cell function; assay type: cell-based; conditions: relative to vehicle
Text: FIG. 38 illustrates the results of the cytotoxicity assay for CD8^+ T cell function.

CD8+ T cell [3] = test: IFN-γ level measurements for CD8+ T cell function; assay type: cell-based; conditions: relative to vehicle
Text: FIG. 39 illustrates the results of IFN-γ level measurements for CD8^+ T cell function.

[4] = tested on: GPVI platelet aggregation; test: GPVI platelet aggregation studies; assay type: cell-based; conditions: read-out: IC50, GPVI platelet aggregation
[5] = tested on: NK cell lysis of Raji cells; test: Rituximab ADCC 51Cr release assay, Raji targets; assay type: cell-based, human
Text: Cell culture conditions were as follows. […] The HER18 cells were maintained in DEM supplemented with fetal bovine serum, penicillin-streptomycin and. Prior to assay, HER18 cells were harvested using trypsin-EDTA, washed with phosphate-buffered saline (PBS) containing 5% serum and viable cells were counted. For culture of primary target cells, peripheral blood from CLL patients was subject to density centrifugation to obtain peripheral blood mononuclear cells (PBMC). Cell preparations were washed and then subject to positive selection of CD5^+CD19^+ CLL cells using magnetic beads (MACS, Miltenyi Biotech). Cell preparations were used fresh after selection. NK cells from CLL patients and healthy volunteers were enriched from peripheral blood collected in sodium citrate anticoagulant tubes and then subject to density centrifugation. Removal of non NK cells was performed using negative selection by MACS separation. Freshly isolated NK cells were washed three times, enumerated, and then used immediately for ADCC assays.
ADCC assays were performed as follows. Briefly, target cells (Raji or primary CLL) were labeled by incubation at 37° C. with 100 μCi ^51Cr for 4 hours prior to co-culture with NK cells. Cells were washed, enumerated, and then added in triplicate to prepared 96-well plates containing treated NK cells at an effector:target (E:T) ratio of 25:1. […] Cultures were incubated at 37° C. for 4 hours, and then centrifuged. Supernatants were harvested and ^51Cr release was measured by liquid scintillation counting. All experiments were performed in triplicate.

Th17 and Treg cells = test: Th17 and Treg development of CD4+ T cells under skewing cytokines; assay type: cell-based
Method: Enriched CD4^+ T cells are plated on 24-well culture dishes that have been precoated 2 hr with 250 μL anti-TCRβ (0.5 μg/mL) plus anti-CD28 (5 μg/mL) at 37° C. in PBS. The cells are then supplemented with media containing BTK inhibitors along with the skewing cytokines as indicated in the following. The Th17 and Treg cultures are grown for 4 days before analysis. The cells are maintained for an additional 3 days with skewing cytokines (Th17; 20 ng/mL IL-6, 0.5 ng/mL TGF-β, 5 μg/mL IL-4, 5 μg/mL IFN-γ and Treg; 0.5 ng/mL TGF-β, 5 μg/mL IL-4, 5 μg/mL IFN-γ) and are supplemented with IL2 as a growth factor.

CD8+ T cells = test: CD8+ T cell viability on anti-TCR/anti-CD28 coated wells; assay type: cell-based; conditions: 4 days, neutral culture conditions
Method: Total T cells were plated on anti-TCR and anti-CD28 coated wells in the presence of both BTK inhibitors. Neutral culture conditions were used that will not polarize T cells to a helper lineage. […] Statistical significance was calculated using the Mann Whitney T-test.

[6] = tested on: CD8+ T cell function (B lymphoblast targets); test: Cytotoxic T cell (CTL) assay; assay type: cell-based; conditions: CTL generated 4 days with 500 nM inhibitor
Method: Without being bound by any theory, CD8^+ T cells have two primary effector functions: (1) produce large amounts of IFN-γ (which activates macrophages), and (2) cytolytic activity. […] The targets were B lymphoblasts from lipopolysaccharide (LPS) treated cultures. The assay was performed by incubating different ratios of effectors:targets for 4 hours.

[7] = tested on: GPVI platelet aggregation; test: GPVI (convulxin-induced) platelet aggregation; assay type: cell-based; conditions: human platelets
Method: In FIG. 67, the results of CVX-induced (250 ng/mL) human platelet aggregation results before and 15 minutes after administration of the BTK inhibitors to 6 healthy individuals are shown.

hematologic malignancies = conditions: cited from earlier work
peripheral blood B cell = conditions: doses from 0.001-100 mg/kg, two experiments; cited from earlier work

C=CC(=O)Nc1cccc(Nc2nc(Nc3ccc(OCCOC)cc3)ncc2F)c1 [Formula (17), N-(3-((5-fluoro-2-((4-(2-methoxyethoxy)phenyl)amino)pyrimidin-4-yl)amino)phenyl)acrylamide, reference compound]
effect on human platelet-mediated thrombus formation [1]: effect similar to Formula (10) (ibrutinib)

C=CC(=O)N1CCC[C@@H](n2nc(-c3ccc(Oc4ccccc4)cc3)c3c(N)ncnc32)C1 [Formula (10), 1-[(3R)-3-[4-amino-3-(4-phenoxyphenyl)-1H-pyrazolo[3,4-d]pyrimidin-1-yl]piperidin-1-yl]prop-2-en-1-one, reference compound]
antibody-dependent NK cell-mediated cytotoxicity (percent lysis) (Raji cell line): antagonizes antibody-dependent NK cell-mediated cytotoxicity | CD8+ T cell function as % cytotoxicity (CD8+ T cell [2]): affects CD8^+ T cell function as measured by % cytotoxicity | CD8+ T cell function as IFN-γ level (CD8+ T cell [3]): affects CD8^+ T cell function as measured by IFN-γ level | IC50 [4]: 0.13 µM | effect on rituximab-mediated ADCC, Raji cells ([5]; 1 μM, NK cells, E:T 25:1): strongly inhibited | Th17 development (Th17 and Treg cells): profound inhibition | Treg development (Th17 and Treg cells): increase | CD8+ T cell viability (CD8+ T cells): strong, negative effect | CD8+ T cell function as % cytotoxicity [6]: affects CD8^+ T cell function | CD8+ T cell function as IFN-γ levels [6]: significant loss of function | GPVI platelet aggregation [7]: significantly inhibits | antitumor activity (hematologic malignancies; subjects with heavily pretreated non-Hodgkin lymphoma): substantial antitumor activity | maximum tolerated dose (MTD) (hematologic malignancies; within the tested dose range (through 840 mg)): No maximum tolerated dose (MTD) was apparent

PF-05082566: 4-1BB agonist monoclonal antibody from Pfizer; heavy chain SEQ ID NO:435, light chain SEQ ID NO:436
peripheral blood B cell numbers (peripheral blood B cell): either unchanged or decreased

rituximab: anti-CD20 antibody (Genentech)
increase in cell lysis over natural cytotoxicity ([5]; rituximab 0.1 and 1 μg/mL, healthy donor NK cells, Raji cells): 5- to 8 fold
